The values below come from paper PMC3230693 (Nature structural & molecular biology, 2011).

In assay [1] the target is WT tEGFR (human EGFR aa 25–1022) (Homo sapiens, UniProt P00533). As to the kind of experiment: Radiometric kinase inhibition assay, WT tEGFR. Type of assay: biochemical.
A further assay has as its target L858R tEGFR (Homo sapiens, UniProt P00533, L858R).
The target of another assay is Δ746–750 tEGFR (Homo sapiens, UniProt P00533, DEL746-750).
Assay [2] concerns the target L858R I706Q tEGFR (human).
The test system of a further assay is HEK293 GnTi− cells. As to the kind of experiment: Expression of mutant tEGFRs in transfected cells. As to conditions: 50 nM in culture medium; western blot. Type of assay: cell-based, human.
For assay [3], the target named is Δ(746–750) I706Q tEGFR (human).
A further assay deals with EGFR catalytic domain. The note with it: cited from earlier work.

As for `Nc1ncnc2c1ncn2[C@@H]1O[C@H](COP(=O)(O)OP(=O)(O)NP(=O)(O)O)[C@@H](O)[C@H]1O` [AMP-PNP], the 50% inhibitory concentration (IC50) in assay [1] (WT tEGFR–EGF, 10 µM ATP, range stated for WT and mutant tEGFRs) is 80 to 200 µM; on L858R tEGFR (L858R tEGFR–EGF, 10 µM ATP, range stated for WT and mutant tEGFRs) it was 80 to 200 µM; at Δ746–750 tEGFR (Δ(746–750) tEGFR–EGF, 10 µM ATP, range stated for WT and mutant tEGFRs), 80 to 200 µM. Also, in assay [1] (read-out: Ki (deduced from IC50, ATP concentration and ATP Kmapp), WT tEGFR–EGF), the Ki was 21 ± 5 µM. The “Ki fold higher compared with WT” value on L858R tEGFR (L858R vs WT tEGFR, range stated for both mutants) was 5–8 fold; at Δ746–750 tEGFR (Δ746–750 vs WT tEGFR, range stated for both mutants) it was 5–8 fold.

For the compound L858R I706Q tEGFR (receptor), the kinase rate in the presence of EGF, against the single mutant L858R tEGFR in assay [2] came out at 30 fold lower.

Regarding `C#Cc1cccc(Nc2ncnc3cc(OCCOC)c(OCCOC)cc23)c1` [erlotinib], the “expression of L858R and Δ746–750 tEGFRs” value in the assay on HEK293 GnTi− cells is recorded as “enhanced expression”.

Regarding Δ(746–750) I706Q tEGFR (receptor), the kinase rate of the EGF–bound form, against Δ746–750 tEGFR in assay [3] was 5 fold lower.

Compound “Segment 1 of MIG6: MIG6 segment 1 (30mer, residues 334–364) peptide made by solid-phase peptide synthesis (SPKSLPSYLNGVMPPTQSFAPDPKYVSSKAL)” displayed an IC50 in assay [1] (EGF–bound WT tEGFR, phosphorylation of biotinylated substrate peptide) of 100 µM. The “inhibition by MIG6 segment 1” value with L858R tEGFR (L858R tEGFR–EGF, up to 100 µM) is on record as “essentially resistant to inhibition”; in the assay with Δ746–750 tEGFR (Δ(746–750) tEGFR–EGF, up to 100 µM), “essentially resistant to inhibition”. For the same compound, the “affinity, fold weaker relative to segment 1+2” value in the assay on EGFR catalytic domain is listed as ~ 100 fold.

The term IC50 denotes the concentration that gives 50% inhibition. The low end stands for inhibition by little substance, the high end for a need for much substance.
